This is an account of results in paper PMC9034178, “Self-assemblies of pluronic micelles in partitioning of anticancer drugs and effectiveness of this system towards target protein” (RSC Advances, 2021).

This experiment deals with T1, bovine serum albumin (BSA) (Bos taurus, UniProt P02769).
T1 construct: gene ALB
Briefly: tryptophan fluorescence quenching (ex […] nm), double-log plot. Format: binding. To be noted: no pluronic; pH 7.4, 298.15 K.

T1 sequence (P02769 25-607): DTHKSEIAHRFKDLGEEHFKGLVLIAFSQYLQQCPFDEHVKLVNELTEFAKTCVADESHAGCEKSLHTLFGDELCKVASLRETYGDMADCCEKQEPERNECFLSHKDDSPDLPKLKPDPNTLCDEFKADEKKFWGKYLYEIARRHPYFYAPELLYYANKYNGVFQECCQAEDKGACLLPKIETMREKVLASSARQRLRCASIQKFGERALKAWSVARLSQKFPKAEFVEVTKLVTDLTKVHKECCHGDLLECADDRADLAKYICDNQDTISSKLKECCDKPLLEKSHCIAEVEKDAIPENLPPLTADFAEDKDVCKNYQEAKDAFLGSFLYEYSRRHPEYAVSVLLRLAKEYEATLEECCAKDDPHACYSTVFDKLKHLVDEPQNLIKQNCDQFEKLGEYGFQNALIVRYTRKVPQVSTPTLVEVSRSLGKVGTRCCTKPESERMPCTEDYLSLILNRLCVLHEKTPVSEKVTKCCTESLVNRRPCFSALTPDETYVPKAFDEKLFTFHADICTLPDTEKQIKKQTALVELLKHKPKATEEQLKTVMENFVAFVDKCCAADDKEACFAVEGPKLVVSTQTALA

As to `Nc1ccn([C@@H]2O[C@H](CO)[C@@H](O)[C@@H]2O)c(=O)n1` [cytarabine], the “K a (M^-1)” value is on record as “(1.1 ± 0.1) × 10^2 M^-1”.

As to `Nc1ccn([C@@H]2O[C@H](CO)[C@@H](O)C2(F)F)c(=O)n1` [gemcitabine], the “K a (M^-1)” value is “(2.4 ± 0.2) × 10^2 M^-1”.

Regarding `NC(=O)NO` [hydroxyurea], the “K a (M^-1)” value is “(2.3 ± 0.4) × 10^2 M^-1”.
